How the values were obtained:
CaM = test: ITC: binding of MBR (IQ motif) peptides to CaM; details: VP-ITC, 25°C, 10 µM CaM in cell, 150 µM IQ peptide in syringe, Buffer A: 20 mM imidazole pH 8.0, 100 mM NaCl, 2 mM EGTA, in words, Fig. 3B vs 3A
Experimental: Different lengths of Nm and Ng IQ motif peptides were commercially synthesized and obtained from GL BiochemLtd (Shanghai, China). Stock solutions of 1 mM of Nm/Ng IQ peptides were prepared by dissolving the appropriate amount of peptide in 20 mM imidazole pH 8.0, 100 mM NaCl and 2 mM EGTA (Buffer A). After mixing, the peptide stock solutions were stored at 4°C to ensure complete peptide solubility. The choice of buffer is based on obtaining maximum solubility of the peptides. NOTE: Synthetically derived peptides should be verified for solubility when dissolved in a buffer of interest. Sometimes preparing high concentrations of peptide stock solution may result in precipitation. Lower concentrations of stock solutions can be prepared to avoid this problem.
• 1. ITC assay: Identification of MBR (minimum binding region) from Nm and Ng. • 1.1. Wildtype (WT) CaM, Nm and Ng are purified, as described previously. • 1.2. Prepare 10 µM of full length Nm/Ng and 150 µM of CaM in Buffer A (Recipes). The Schematic representation of the ITC experimental setup is depicted in Figure 2A. • 1.3. Degas all solutions for 10–20 min using a vacuum pump and centrifuge in order to avoid bubble formation in the sample cell during the experiment. • 1.4. […]

C-lobe of CaM = details: previous findings; ref [34]-[36]; cited from earlier work
From the text: The Gly-linker strategy has been previously used to stabilize various protein complexes for structural studies. We have adopted this procedure to determine the crystal structure of CaM in complex with two of its intrinsically unstructured binding partners, Nm and Ng, and further validated the findings in vitro and in vivo [19]. We identified the MBR of Nm and Ng that interacted with CaM using ITC experiments using various peptide lengths of Nm/Ng. […] We employed known s ...

Row | Substance | binding with CaM compared with full length Nm (CaM) | interaction site on CaM (C-lobe of CaM)
1 | Minimum Binding Region (MBR) peptide of Nm: Optimized minimum binding region peptide (IQ motif) of Neuromodulin; commercially synthesized | mimics full length Nm in terms of binding with CaM | –
2 | Ng: Full-length Neurogranin (accession no NP_071312), intrinsically disordered neuron-specific substrate protein | – | interacted with the C-lobe of CaM
3 | Nm: Full-length Neuromodulin (accession no NP_032109), intrinsically disordered neuron-specific substrate protein | – | interacted with the C-lobe of CaM

Source: PMC4789767, “Application of linker technique to trap transiently interacting protein complexes for structural studies” (Journal of Biological Methods, 2016)
